Measurements from patent US10765674B2, “Prevention of HIV-infection” (Janssen Sciences Ireland Unlimited Company, priority 2005, dated 2020).

Assay: Tissue concentrations of TMC278 in beagle dog (biopsy on day 232) after single intramuscular administration
Type: in vivo, beagle dogs
Conditions: dog No. 16924, day 232 after single IM 2.5 mg/kg, aqueous 30% DMA/50% PEG400 solution; for concentration at 232 day: male, beagle, intramuscular
Experimental: On day 232 post-dose, a biopsy was performed (dog No. 16924 only) on the iliac lymph node (at the side of injection), on a muscle from the non-injected hind leg and on a muscle at the side of injection after ultrasonographic examination. All tissue samples were protected from light as much as possible and stored on melting ice. All samples were protected from light and stored at ≤−18° C. Finally, an additional blood sample was collected on day 272. This sample was processed and analysed similarly to the other blood samples. The concentration of TMC278 in dog tissue samples was also determined by a qualified research LC-MS/MS method. Tissues samples were homogenized with a 10-fold dilution in Milli-Q water by means of an Ultra-Turrax. The tissue homogenates (200 μl aliquot) were extracted by adding of 600 μl methanol (containing […]). After vortexing and centrifugation, the supernatant was transferred to an HPLC vial and 20 μl aliquots were injected. The LC and the MS conditions were the same as described above. The lower limit of quantification was 10.0 ng/g tissue. Samples were protected from light during the bioanalytical analysis.

[1] = muscle at the side of injection
[2] = muscle from the non-injected hind leg

## Cc1cc(C=CC#N)cc(C)c1Nc1ccnc(Nc2ccc(C#N)cc2)n1 [TMC278, 4-[[4-[[4-(2-cyanoethenyl)-2,6-dimethylphenyl]amino]-2-pyrimidinyl]-amino]benzonitrile]
Iliac lymph node at the side of injection
  concentration at 232 day: 72.6 ng/g
[1]
  concentration at 232 day: < 10 ng/g
  tissue concentration: <10.0 ng/g
[2]
  concentration at 232 day: < 10 ng/g
  tissue concentration: <10.0 ng/g
